Reference: patent US20090136434A1, “Tyrosinase enzyme inhibitors from fungal hydroxylation of tibolone” (HEJ Research Institute, priority 2007, published 2009)

How the values were obtained:
[1] = biological target: mushroom tyrosinase; assay: Tyrosinase inhibition assay (o-diphenolase activity, L-DOPA as substrate); assay type: biochemical; conditions: mushroom tyrosinase 30 units (28 nM), L-DOPA 0.5 mM, pH 6.8, absorbance at 475 nm, mean ± S.E.M., at least triplicates; read-out: IC50 ± SEM (in μM), tyrosinase inhibitory activity
Protocol: Tyrosinase inhibition assays were performed in 96-well microplate format using SpectraMax 340 microplate reader (Molecular Devices, CA, USA) according to the method developed by Hearing (1987). Briefly, first the compounds were screened for the o-diphenolase inhibitory activity of tyrosinase using L-DOPA as substrate. […] Compounds were dissolved in methanol to a concentration of 2.5%. 30 units of mushroom tyrosinase (28 nM from Sigma Chemical Co., USA) first preincubated with the compounds in […] Na-phosphate buffer (pH 6.8) for 10 min at 25° C. Then, the L-DOPA (0.5 mM) was added to the reaction mixture and the enzyme reaction was monitored by measuring the change in absorbance at 475 nm (at 37° C.) due to the formation of the DOPA chrome for 10 min. The percent inhibition of the enzyme was calculated as =[…], wherein the B and S are absorbance for the blank and samples, respectively. After screening, the compounds median inhibitory concentration (IC50) was also calculated. […] (Hearing et al., Int J Biochem, 19(12): 1141-71987).

[2] = tested on: Salmonella typhimurium; conditions: studies referred to, no data of the applicant; cited from earlier work

| Structure (SMILES) | IC50 [1] [µM] | melting point [°C] | mutagenic activity in a Salmonella typhimurium assay [2] |
| --- | --- | --- | --- |
| C#CC1(O)CC(O)C2C3C(C)CC4=C(CCC(=O)C4)C3C(O)CC21C (stereo not drawn) [Metabolite 5, 11α,15β-Dihydroxytibolone] | 5.12 ± 0.67 | 208 to 210 | – |
| C#CC1(O)CC(O)C2C3C(C)C=C4CC(=O)CCC4C3C(O)CC21C (stereo not drawn) [Metabolite 6, 11α,15β-Dihydroxy-Δ^5-Tibolone] | 7.1 ± 0.13 | 207 to 211 | – |
| C#CC1(O)CCC2C3C(C)C(OC)C4=CC(=O)CCC4C3CCC21C (stereo not drawn) [Metabolite 8, 6β-Methoxy-Δ^4-Tibolone] | 25.15 ± 0.24 | – | – |
| C#CC1(O)CCC2C3C(C)CC4=CC(=O)CCC4(O)C3CCC21C (stereo not drawn) [Metabolite 4, 10β-Hydroxy-Δ^4-Tibolone] | 119.4 ± 0.2 | – | – |
| N[C@@H](Cn1ccc(=O)c(O)c1)C(=O)O [L-Mimosine, L-mimosine, reference compound] | 3.68 ± 0.022 | – | – |
| C#CC1(O)CC(O)C2C3C(C)CC4=C(CCC(=O)C4)C3CCC21C (stereo not drawn) [Metabolite 2, 15β-Hydroxytibolone] | 50.86 ± 0.36 | – | – |
| C#CC1(O)CCC2C3C(CCC21C)C1=C(CC(=O)CC1)C(O)C3C (stereo not drawn) [Metabolite 1, 6β-Hydroxytibolone] | 7.45 ± 0.21 | 202 to 205 | – |
| C#CC1(O)CCC2C3C(C)C(O)C4=CC(=O)CCC4C3CCC21C (stereo not drawn) [Metabolite 7, 6β-Hydroxy-Δ^4-Tibolone] | 36.14 ± 0.21 | – | – |
| C#CC1(O)CCC2C3C(C)CC4=CC(=O)CCC4C3CCC21C (stereo not shown) [Metabolite 3, Δ^4-Tibolone] | 8.19 ± 0.54 | – | – |
| O=c1cc(CO)occ1O [Kojic acid] | – | – | weak mutagenic activity |
